Earlier results on five compounds are cited in patent US20070269478A1, “METHOD OF PREPARING ACELLULARIZED, BIOCOMPATIBLE, IMPLANTABLE MATERIAL” (priority 2006, published 2007).

The conditions of data set [1]: for pK5: primary amine basicity, glycine vs. metilamine; for pK2: amino group, glutamic acid vs. γ-aminobutyric.
For data set [2] the following is noted: α-amino acids with acidic side chains.

On to `CN` [metilamine], for which, in data set [1], the pK5 is on record as 10.65.

Consider `N[C@@H](CCS(=O)(=O)O)C(=O)O` [homocysteic acid], for which the “pH above which there is an excess of negative charge” value in data set [2] is listed as approximately 2.2.

As for `NCCCC(=O)O` [γ-aminobutyric, 4-aminobutanoic acid], the pK2 in data set [1] is 10.56.

As for `N[C@@H](CCC(=O)O)C(=O)O` [glutamic acid], the “pH above which there is an excess of negative charge” value in data set [2] is reported as approximately 4.2. The pK2 in data set [1] is 9.76.

Regarding `NCC(=O)O` [glycine], the pK5 in data set [1] is reported as 9.60.
